Biological target: Cyclin-A1/Cyclin-A2/Cyclin-dependent kinase 2 (Homo sapiens, UniProt P24941)
Assay: Inhibition of recombinant Cdk2/cyclinA

Row | IC50 | Compound
1 | 100 pM | Cc1csc(-c2ccc(CNc3nc(N[C@H]4CC[C@H](N)CC4)nc4c3ncn4C(C)C)s2)n1
2 | 900 pM | CC(C)n1cnc2c(NCc3ccc(-c4cccs4)nc3)nc(N[C@H]3CC[C@H](N)CC3)nc21
